pEC50, pIC50, pKd: −log10 of the molar value. Each block holds one molecule with its values, some of them ahead of it.
How the values were obtained:
hEBI2 [1] = target: T1, hEBI2 (Homo sapiens, UniProt P32249); assay: calcium fluorescence (FLIPR); type: cell-based; design: expressed in transfected cells; host or cells: CHO-K1 expressing apoaequorin (CHO-Aeq) with Gqi5; line E2
Procedure: If not stated otherwise compounds were dissolved at 10 mM in DMSO or ethanol (cholesterol, 25MDC). Serial dilutions were carried out in 90% DMSO (FLIPR, GTPgS) or assay buffer (binding assay). For cell based assays final DMSO concentrations is kept below 1%.
If not stated otherwise, the same Chinese hamster ovary (CHO) cell line called E2 which was used for the ligand identification was used in these experiments. This cell line is expressing (1) the recombinant human EBI2 receptor, (2) the promiscuous Gqi5 protein as well as (3) apo-aequorin.
Cells were seeded in black/clear bottom, poly-D-Lysine coated 384-well plates at a cell density of 10,000 cells/25 μL/well, using culture medium. Cells were cultured for 24 hours at 37° C./5% CO2. Culture medium was removed and for cell loading, 20 μl per well of loading buffer (Calcium-4 no wash dye) were distributed into the wells and the plates were incubated for 60 min at 37° C. in 5% CO2. With the FLIPR pipettor, 10 μl of the different compounds were added to the cells and the subsequent fluorescent changes monitored for 3 minutes. Using the FLIPR software tool, 2 values of fluorescence calcium responses were exported: Fmax, the fluorescence at the peak and Fbasal corresponding to the value prior to compound injection. From these two values, the calcium response is normalized with respect to the calcium baseline values using dF/F=(Fmax−Fbasal)/Fbasal. The maximum dF/F is called Emax.

hEBI2 [2] = target: T1, hEBI2; assay: GTPγS assay on EBI2 membranes; type: biochemical; design: expressed in transfected cells; host or cells: CHO-K1 expressing apoaequorin (CHO-Aeq) with Gqi5; line E2
Procedure: (§1) The cell suspension was then homogenized using a Dounce homogenizer (10 strokes) with a driller. After centrifugation at 110000×g for 45 minutes and removal of the supernatant, pellets were resuspended in sucrose buffer (50 mM Tris pH7.2, 250 mM sucrose, 10% glycerol) by vortexing. The suspension was again homogenize using a Dounce homogenizer (10 strokes) and spun at 100000×g for 45 minutes. The supernatant was discarded, the pellet resuspended in sucrose buffer, protein concentration determined, aliquoted and frozen at −80° C. These membrane preparations were used in binding as well as GTPgS assays.
Ten micrograms of EBI2 membranes are dissolved in 40 μl of buffer A (20 mM Hepes pH 7.4, 100 mM NaCl, 1.5 mM MgCl2, Saponin 10 μg/ml) supplemented with 10 μM GDP. After addition of […] scintilation proximity assay (SPA) beads (100 μg/well, Amersham, RPNQ0001) components are gently mixed and incubated at RT for 15 minutes. Twenty microliters of compound diluted in buffer A and 20 μl of GTPγ^35S (Perkin Elmer NEG030X) is added before incubation for one hour at RT. Plates are transferred and counted in a TopCount (Perkin Elmer NXT HTS™) and counts are analysed plotted and to determine half maximal concentrations of activation using standard software (Prism™, GraphPad Software Inc.).

hEBI2 [3] = target: T1, hEBI2; assay: [3H] 7a,25DHC radio-ligand binding assay (SPA), IC50 determination; design: expressed in transfected cells; host or cells: CHO-K1 expressing apoaequorin (CHO-Aeq) with Gqi5; line E2
Procedure: as §1
Lyophilized wheat germ agglutinin scintilation proximity assay (SPA) beads (RPNQ0001) were purchased from GE Healthcare (Buckinghamshire, UK). One vial (500 mg) is reconstituted by adding 5 mL of distilled water to give a final concentration of 100 mg/mL. Reconstituted SPA beads must be stored at 4° C., but must not be frozen. [3H]-7a,25-OHC, was synthesized by reduction of the 7-keto, 25DHC in the presence of 3H-L-selectride.
The SPA assay was performed in a final volume of 50 μl per well in a 384-well polystyrene Opti plate. The components were added into the wells as follows: • 10 μl tested compounds in 50 mM Tris; 100 mM NaCl; 5 mM MgCl2 and 0.1% Cyclodextrine.
Total binding was determined by the addition of 10 μl of 50 mM Tris; 100 mM NaCl; 5 mM MgCl2 and 0.1% Cyclodextrine and non-specific binding was determined by the addition of 10 μl NVP-BYX998-NX-4 (final concentration of 10 μM). • 20 μL of 10 nM final [3H]-BYX998 in assay buffer (50 mM Tris-HCl, 100 mM NaCl, 5 mM MgCl2 and 0.1% Cyclodextrine). • 20 μL of a mixed bead and membrane suspension in assay buffer, in order to get a final concentration of 20 μg membranes/well and 200 μg beads/well.
The plates were sealed and shaken at room temperature for 10 minutes then allowed to stand at room temperature for at least 12 hours. The plates were counted using a Perkin Elmer TopCount reader, each well being counted for 1 minute.
Each IC50 determination was performed with 11 concentrations.
A standard data reduction algorithm was used to calculate the percentage of specific binding in the presence of test compound as follows: ((B−NSB)/(Total−NSB))·100, where B=Binding in the presence of test compound (in cpm) NSB=Non-specific binding in the presence of excess inhibitor (in cpm) Total=Binding in the absence of test compound (in cpm) Curve fitting of the normalized concentration response curves using a four parameter logistic fit is then performed using XLfit (v.2 or v.4, IDBS, Guildford, UK). The equation used is XLfit equation no. […] By default, min is fixed at 0, whereas max is not fixed.

hEBI2 [4] = target: T1, hEBI2; assay: saturation binding, KD determination; design: expressed in transfected cells; host or cells: CHO-K1 expressing apoaequorin (CHO-Aeq) with Gqi5; line E2
Procedure: as §1, with “CHO cells stably expressing human EBI2 (E2) were grown in roller bottles (Corning #431191) to confluency, washed with phosphate buffered saline (PBS) once and frozen at −80° C. The frozen cell pellets were resuspended in ice-cold homogenization buffer (10 ml/gram, 20 mM Tris pH7.2) supplemented with a protease inhibitor cocktail (Complete™, Roche, #05 056 489 001-14302200). The cell” for “The cell”
These solutions were made in buffer containing 50 mM Tris; 100 mM NaCl; 5 mM MgCl2 and 0.1% Cyclodextrine.
[…] was measured in presence of a constant 7a,25DHC (NVP-BYX998-NX-4) concentration of 10 uM final and the corresponding total binding was measured with buffer instead of NVP-BYX998-NX-4. […]

RS11846 cells = assay: chemotaxis 96 transwell assay; type: cell-based
Procedure: B cells (RS11846 or EBV-infected human B-cells) or murine bone marrow-derived dendritic cells were washed once with medium and resuspended at 1×10^6/ml. 100 μl of this suspension was added into the wells of the filter plate and gently placed into the receiver plate containing 150 μl of a given compound dilution. The final DMSO concentration was less then 0.1%. After migration for 3 hr at 37° C. in an incubator, the filter plate was carefully removed from the receiver plate and discarded. The migrated cells in the receiver plate were resuspended and transferred into round-bottom 96-well plate, centrifuged and resuspended in 100 μl PBS containing 2% FCS and 0.1% NaN3 (FACS buffer). The input cells (100 μl) were similarly processed. For the calculation of the specific migration, a fixed number of beads (10000; Invitrogen #PCB100)) in 20 μl FACS buffer was added and the suspension was analyzed by flow cytometry using a FACS instrument PAS™ (Partec). Cells were identified based on their forward scatter (FSC) and side scatter (SSC) pattern. Chemotaxis is expressed either as total cell number or as percent of input cells.

T1 sequence (P32249 whole entry): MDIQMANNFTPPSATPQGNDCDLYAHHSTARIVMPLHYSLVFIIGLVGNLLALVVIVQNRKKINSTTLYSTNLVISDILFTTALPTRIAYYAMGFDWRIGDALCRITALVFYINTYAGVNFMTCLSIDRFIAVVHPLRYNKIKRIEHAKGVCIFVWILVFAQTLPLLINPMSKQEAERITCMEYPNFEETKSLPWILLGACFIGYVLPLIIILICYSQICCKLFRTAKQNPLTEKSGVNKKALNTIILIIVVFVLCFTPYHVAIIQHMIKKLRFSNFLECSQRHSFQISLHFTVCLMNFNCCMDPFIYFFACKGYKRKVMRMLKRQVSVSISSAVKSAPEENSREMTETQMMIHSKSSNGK

- pEC50 (hEBI2 [1]; n = 3-4, read-out: FLIPR EC50): 6.51
- pEC50 (hEBI2 [2]; n = 3-4, read-out: GTPgS EC50): 6.90
- pIC50 (hEBI2 [3]): < 5.00
Molecule: CC(CO)CCC[C@@H](C)[C@H]1CC[C@H]2[C@@H]3[C@@H](O)C=C4C[C@@H](O)CC[C@]4(C)[C@H]3CC[C@]12C (stereo partly drawn) [7b,27DHC, cholest-5-ene-3b,7b,27-triol]

- pEC50 (hEBI2 [1]): 5.52
- pEC50 (hEBI2 [2]): 6.14
- pIC50 (hEBI2 [3]): < 5.00
Molecule: C[C@H](CCCC(C)(C)O)[C@H]1CC[C@H]2[C@@H]3CC=C4C[C@@H](O)CC[C@]4(C)[C@H]3CC[C@]12C [25DHC, 25-hydroxycholesterol]

Molecule: C[C@H](CCCC(C)(C)O)[C@H]1CC[C@H]2[C@@H]3[C@H](O)C=C4C[C@@H](O)CC[C@]4(C)[C@H]3CC[C@]12C [[^3H]-7a,25DHC]
- pKd (hEBI2 [4]): 7.60

Molecule: C[C@H](CCCC(C)(C)O)[C@H]1CC[C@H]2[C@@H]3[C@@H](O)C=C4C[C@@H](O)CC[C@]4(C)[C@H]3CC[C@]12C [[^3H]-7b,25DHC]
- specific binding to EBI2 membranes (hEBI2 [4]; data not shown): not able to detect specific binding

Molecule: pertussis toxin [reference compound]
- inhibition of 7a,25DHC-mediated chemotaxis of RS11846 cells (RS11846 cells): blocked
